Measurements: US6465440B2, “Antimutagenic compositions for treatment and prevention of photodamage to skin” (Wellstat Therapeutics Corporation, priority 1997, dated 2002)

Key:
[1] = system: Human melanocytes; assay: Nitric oxide-induced DNA strand breaks with or without UV (pulsed field gel electrophoresis); type: cell-based
Protocol: Human melanocytes were exposed to 160 μM DETA NONOate (Alexis Corporation, Cat #430-014-M005), a reagent which spontaneously produces nitric oxide when exposed to water. Cells were exposed to NO alone, or NO plus increasing doses of UV radiation (50 and 300 J/m^2). Groups of cells were also exposed to deoxyribonucleosides of the invention before, or before and after, exposure to NO or NO+UV radiation; control groups were treated identically except for addition of deoxyribonucleosides.
DNA was extracted from cells and subjected to pulsed field gel electrophoresis to determine the incidence of DNA strand breaks.

[2] = system: human fibroblasts; assay: UV-induced DNA single strand breaks (nucleoid position, alkaline sucrose gradient) with oxybenzone; type: cell-based
Protocol: (§1) Confluent human fibroblasts in T25 flasks were washed 3 times with HBSS (Hank's Balanced Salt Solution) and incubated with vehicle or with various concentrations of oxybenzone (OB) for 2 hours. Media was aspirated and cells were covered with a 1 mm layer of HBSS and irradiated from above with UV-B (50 J/m^2). The medium was aspirated and cells were incubated for three hours with 2 mM hydroxyurea. Medium was again aspirated, and cells were trypsinized with 0.25% trypsin/EDTA. Cells were centrifuged at 4° C., resuspended in 50 microliters of HBSS and incubated at room temperature with 200 microliters of 1N NaOH for 15 minutes. DNA damage (single strand breaks) was assessed by alkaline sucrose gradient centrifugation. “Nucleoid position” in the sucrose gradient is proportional to the number of DNA single strand breaks.

[3] = system: human fibroblasts; assay: Photodynamic enhancement of DNA damage by UV plus oxybenzone, attenuation by deoxyribonucleosides (nucleoid position); type: cell-based; conditions: UV + 2 μM OB, no dNsides
Protocol: as §1
Confluent human fibroblasts were exposed to 2 micromolar oxybenzone (OB), as in Example 3, prior to exposure to UV-B radiation (50 J/m^2). Different flasks of cells also were exposed to increasing concentrations of deoxyribonucleosides. Cells were processed for determination of nucleoid position in a sucrose density gradient, a measure of DNA single strand breaks.

[4] = system: human fibroblasts; assay: Individual versus combined deoxyribonucleosides on photodynamically enhanced UV-induced DNA strand breaks; type: cell-based; conditions: UV with 2 μM oxybenzone; individual compounds 20 μM, combination 20 μM each; UV + vehicle .325
Protocol: Confluent human fibroblasts were exposed to 2 micromolar oxybenzone (OB), as in Example 3, prior to exposure to UV-B radiation (50 J/m^2). Different flasks of cells also were exposed to increasing concentrations of deoxyribonucleosides. Cells were processed for determination of nucleoid position in a sucrose density gradient, a measure of DNA single strand breaks. […] Individual deoxyribonucleosides were tested at concentrations of 20 μM, and the combination of all four deoxyribonucleosides contained thymidine, deoxycytidine. deoxyadenosine and deoxyguanosine at 20 μM each.

[5] = system: v-Ha-ras TG.AC mice; assay: Individual deoxyribonucleosides versus combination on UV-induced tumorigenesis in v-Ha-ras TG.AC mice; type: in vivo, mouse; conditions: UV 1.25 kJ/m^2 on days 0, 6, 8 and 11; 4 mg/ml (each) in propylene glycol beginning 30 minutes after irradiation; vehicle 1.8
Protocol: Thirty v-Ha-ras TG.AC mice aged twelve weeks were shaved and subjected to ultraviolet radiation, 1.25 kJ/m^2 on days 0, 6, 8 and 11, at a dose rate of 12.5 W/m2. Mice were divided into groups of five animals each and treated, beginning 30 minutes after irradiation, with: 1. Vehicle (propylene glycol) 2.

Row | SMILES | DNA Strand Breaks [4] | Papillomas/mouse at the end of 8 weeks [5] | other results
1 | [N]=O [NO, Nitric oxide] |  |  | DNA Strand Breaks ([1]; NO + UV 50 J/m^2): 0.21 breaks/105 MDa; DNA Strand Breaks ([1]; NO + UV 300 J/m^2): 0.51 breaks/105 MDa; DNA Strand Breaks ([1]; NO alone (160 μM DETA NONOate)): 0.13 breaks/105 MDa
2 | COc1ccc(C(=O)c2ccccc2)c(O)c1 [OB, oxybenzone (benzophenone-3)] |  |  | Nucleoid Position ([2]; UV 50 J/m^2 + 2 μM OB, 2 hours preincubation): 32 mm; Nucleoid Position ([2]; UV 50 J/m^2 + 20 μM OB): 4 mm; Nucleoid Position ([2]; UV 50 J/m^2 + 200 μM OB): 3 mm; Nucleoid position relative to non-irradiated cells ([2]; UV 50 J/m^2 + 2 micromolar OB): 10 fold; Nucleoid Position [3]: 56 mm
3 | Nc1ncnc2c1ncn2[C@H]1C[C@H](O)[C@@H](CO)O1 [deoxyadenosine, Deoxyadenosine] | .17 Breaks/47 MDa | 0.67 Papillomas/mouse | 
4 | Nc1ccn([C@H]2C[C@H](O)[C@@H](CO)O2)c(=O)n1 [deoxycytidine, Deoxycytidine] | .12 Breaks/47 MDa | 0.25 Papillomas/mouse | 
5 | Nc1nc2c(ncn2[C@H]2C[C@H](O)[C@@H](CO)O2)c(=O)[nH]1 [deoxyguanosine, Deoxyguanosine] | .17 Breaks/47 MDa | 1.0 Papillomas/mouse | 
6 | Cc1cn([C@H]2C[C@H](O)[C@@H](CO)O2)c(=O)[nH]c1=O [thymidine, Thymidine] | .13 Breaks/47 MDa | 1.6 Papillomas/mouse | 
